Test results from ChEMBL document CHEMBL1201862, “PubChem BioAssay data set” (2004).
“And” between values parts separate entries of the source, which are not always exact repeats. Identical values can stand only once. The source made the active and inactive calls.

Tests used:
[1] = viability inhibitors of stage V gametocytes – luminescence, dose response (AID 1117278); assay type: functional, cell-based;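 also: gametocytes exposed to compound for 24 hours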
[2] = viability loss in human Jurkat cells – cell-based, luminescence, cytotoxicity control for P. falciparum gametocyte viability project, dose response (AID 1117277); assay type: functional;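 also: potency reflects loss of cellular ATP meaning fewer viable cells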
[3] = target: T1, Sphingosine 1-phosphate receptor 2 (Homo sapiens, UniProt O95136); assay: Dose Response Cell Based Assay for Antagonists of the S1P2 Receptor. [Related pubchem assays: 856, 736 ]; assay type: functional
T1 sequence (O95136 whole entry): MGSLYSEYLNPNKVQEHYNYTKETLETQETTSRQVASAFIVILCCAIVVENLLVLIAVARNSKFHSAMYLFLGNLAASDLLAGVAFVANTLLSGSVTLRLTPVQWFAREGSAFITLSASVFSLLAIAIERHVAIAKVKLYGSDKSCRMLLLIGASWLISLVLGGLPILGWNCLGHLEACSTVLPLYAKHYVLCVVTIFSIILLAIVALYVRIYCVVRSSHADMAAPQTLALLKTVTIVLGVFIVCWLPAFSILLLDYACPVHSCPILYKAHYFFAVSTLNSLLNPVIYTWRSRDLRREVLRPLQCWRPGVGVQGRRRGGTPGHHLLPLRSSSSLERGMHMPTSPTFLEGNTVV

Aminopeptidase N = target: T2, Aminopeptidase N (Plasmodium falciparum FcB1/Columbia, UniProt O96935); assay: malaria alanyl aminopeptidase activity blockers – biochemical, fluorogenic H-Leu-NHMec substrate, 1536-well (AID 1445); set-up: species or system Plasmodium falciparum 3D7, 3D7
T2 sequence (O96935 whole entry): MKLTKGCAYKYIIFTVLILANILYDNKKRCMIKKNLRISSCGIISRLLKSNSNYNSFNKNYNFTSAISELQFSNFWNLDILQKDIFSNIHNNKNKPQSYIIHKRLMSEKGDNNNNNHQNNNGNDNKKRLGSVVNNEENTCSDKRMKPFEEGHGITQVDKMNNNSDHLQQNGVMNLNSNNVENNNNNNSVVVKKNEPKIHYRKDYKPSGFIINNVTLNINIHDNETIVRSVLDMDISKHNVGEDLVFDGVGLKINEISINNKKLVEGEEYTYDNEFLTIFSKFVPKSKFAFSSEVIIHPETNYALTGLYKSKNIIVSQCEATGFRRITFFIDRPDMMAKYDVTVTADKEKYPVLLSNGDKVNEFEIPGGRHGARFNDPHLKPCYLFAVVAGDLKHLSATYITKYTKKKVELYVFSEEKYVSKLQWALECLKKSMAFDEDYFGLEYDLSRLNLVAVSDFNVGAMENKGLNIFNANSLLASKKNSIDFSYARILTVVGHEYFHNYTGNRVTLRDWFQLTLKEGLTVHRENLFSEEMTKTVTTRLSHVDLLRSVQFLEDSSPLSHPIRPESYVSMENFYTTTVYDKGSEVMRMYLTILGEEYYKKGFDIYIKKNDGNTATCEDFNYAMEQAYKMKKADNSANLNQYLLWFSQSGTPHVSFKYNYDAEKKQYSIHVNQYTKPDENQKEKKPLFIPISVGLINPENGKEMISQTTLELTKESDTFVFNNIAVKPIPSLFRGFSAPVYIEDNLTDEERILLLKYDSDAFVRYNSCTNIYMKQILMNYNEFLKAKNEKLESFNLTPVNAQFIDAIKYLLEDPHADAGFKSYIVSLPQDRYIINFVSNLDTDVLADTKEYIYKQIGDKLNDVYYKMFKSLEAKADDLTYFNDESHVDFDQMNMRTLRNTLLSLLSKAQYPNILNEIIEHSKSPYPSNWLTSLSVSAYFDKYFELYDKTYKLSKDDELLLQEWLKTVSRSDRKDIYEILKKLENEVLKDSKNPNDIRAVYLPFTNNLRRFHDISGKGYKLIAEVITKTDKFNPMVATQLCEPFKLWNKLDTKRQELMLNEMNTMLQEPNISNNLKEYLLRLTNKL

SUMO-activating enzyme [4] = target: T3, SUMO-activating enzyme (Homo sapiens, UniProt Q9UBT2); assay: blockers of SAE1/SAE2–UBC9 SUMO transfer – biochemical, HTRF, uHTS, primary screen (AID 2006); assay type: protein-complex assay
T3 sequence (Q9UBE0 whole entry, the tested form may be a part): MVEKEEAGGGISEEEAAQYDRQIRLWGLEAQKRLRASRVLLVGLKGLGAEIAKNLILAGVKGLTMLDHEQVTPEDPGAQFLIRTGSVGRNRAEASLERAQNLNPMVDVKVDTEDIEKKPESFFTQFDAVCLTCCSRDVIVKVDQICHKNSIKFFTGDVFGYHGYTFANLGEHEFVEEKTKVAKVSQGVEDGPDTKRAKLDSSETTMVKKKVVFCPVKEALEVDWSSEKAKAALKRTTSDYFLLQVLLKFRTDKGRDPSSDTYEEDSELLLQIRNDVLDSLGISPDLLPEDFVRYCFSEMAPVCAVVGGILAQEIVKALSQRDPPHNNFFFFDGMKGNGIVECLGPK
T3 sequence (Q9UBT2 whole entry, the tested form may be a part): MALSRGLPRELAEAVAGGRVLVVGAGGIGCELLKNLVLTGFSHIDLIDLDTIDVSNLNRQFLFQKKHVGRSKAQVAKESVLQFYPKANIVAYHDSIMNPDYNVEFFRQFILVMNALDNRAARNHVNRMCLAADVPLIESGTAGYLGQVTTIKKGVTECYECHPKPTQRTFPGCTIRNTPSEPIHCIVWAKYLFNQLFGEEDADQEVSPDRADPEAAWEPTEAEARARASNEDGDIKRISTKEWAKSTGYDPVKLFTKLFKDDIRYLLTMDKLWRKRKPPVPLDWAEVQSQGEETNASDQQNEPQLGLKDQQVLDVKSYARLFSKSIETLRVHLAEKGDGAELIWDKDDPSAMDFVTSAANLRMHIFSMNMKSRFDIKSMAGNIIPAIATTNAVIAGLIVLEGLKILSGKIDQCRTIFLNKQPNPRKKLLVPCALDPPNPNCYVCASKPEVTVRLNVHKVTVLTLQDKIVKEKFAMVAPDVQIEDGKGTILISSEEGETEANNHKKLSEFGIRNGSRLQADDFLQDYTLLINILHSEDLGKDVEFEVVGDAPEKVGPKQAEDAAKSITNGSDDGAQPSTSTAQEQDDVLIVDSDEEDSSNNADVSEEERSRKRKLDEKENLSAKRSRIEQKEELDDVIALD

[5] = target: E3 ubiquitin-protein ligase UHRF1 (Homo sapiens, UniProt Q96T88); assay: Counterscreen for inhibitors of 5-meCpG-binding domain protein 2 (MBD2): TRFRET-based biochemical high throughput dose response assay to identify inhibitors of binding of ubiquitin-like with PHD and ring finger domains 1 (UHRF1) to methylated oligonucleotide.
Chain of E3 ubiquitin-protein ligase UHRF1 (Q96T88 whole entry, the tested form may be a part): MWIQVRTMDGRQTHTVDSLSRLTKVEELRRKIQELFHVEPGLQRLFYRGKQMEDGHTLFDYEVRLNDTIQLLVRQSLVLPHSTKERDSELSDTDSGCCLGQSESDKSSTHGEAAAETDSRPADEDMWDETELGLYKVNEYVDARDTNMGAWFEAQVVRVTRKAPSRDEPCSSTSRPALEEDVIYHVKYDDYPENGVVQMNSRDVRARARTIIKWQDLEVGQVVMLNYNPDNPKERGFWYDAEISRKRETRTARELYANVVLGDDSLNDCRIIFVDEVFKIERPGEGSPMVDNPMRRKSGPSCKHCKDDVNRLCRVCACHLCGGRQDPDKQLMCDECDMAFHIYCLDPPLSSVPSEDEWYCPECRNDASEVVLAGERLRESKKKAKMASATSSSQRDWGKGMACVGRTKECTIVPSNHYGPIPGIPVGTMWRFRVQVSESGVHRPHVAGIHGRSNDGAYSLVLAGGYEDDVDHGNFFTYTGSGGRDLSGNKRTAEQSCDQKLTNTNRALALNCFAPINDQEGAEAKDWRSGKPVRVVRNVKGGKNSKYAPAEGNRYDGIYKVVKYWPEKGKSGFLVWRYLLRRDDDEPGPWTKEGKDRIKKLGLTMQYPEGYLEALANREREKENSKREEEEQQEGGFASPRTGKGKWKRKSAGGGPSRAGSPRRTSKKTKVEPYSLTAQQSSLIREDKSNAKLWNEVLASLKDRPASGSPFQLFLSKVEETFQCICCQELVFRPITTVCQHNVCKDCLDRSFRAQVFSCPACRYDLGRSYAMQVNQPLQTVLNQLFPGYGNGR

SUMO-activating enzyme [6] = target: T3, SUMO-activating enzyme; assay: blockers of UBC9-mediated SUMO conjugation – biochemical, AlphaScreen, SUMOylation inhibitor project, confirmation (AID 2018); assay type: functional
NADPH oxidase 1 = NADPH oxidase 1 (Homo sapiens, UniProt Q9Y5S8); assay: Late-stage luminescence-based cell-based dose response assay to identify inhibitors of NADPH oxidase 1 (NOX1): Synthesized analogs.; assay type: functional
Chain of NADPH oxidase 1 (Q9Y5S8 whole entry): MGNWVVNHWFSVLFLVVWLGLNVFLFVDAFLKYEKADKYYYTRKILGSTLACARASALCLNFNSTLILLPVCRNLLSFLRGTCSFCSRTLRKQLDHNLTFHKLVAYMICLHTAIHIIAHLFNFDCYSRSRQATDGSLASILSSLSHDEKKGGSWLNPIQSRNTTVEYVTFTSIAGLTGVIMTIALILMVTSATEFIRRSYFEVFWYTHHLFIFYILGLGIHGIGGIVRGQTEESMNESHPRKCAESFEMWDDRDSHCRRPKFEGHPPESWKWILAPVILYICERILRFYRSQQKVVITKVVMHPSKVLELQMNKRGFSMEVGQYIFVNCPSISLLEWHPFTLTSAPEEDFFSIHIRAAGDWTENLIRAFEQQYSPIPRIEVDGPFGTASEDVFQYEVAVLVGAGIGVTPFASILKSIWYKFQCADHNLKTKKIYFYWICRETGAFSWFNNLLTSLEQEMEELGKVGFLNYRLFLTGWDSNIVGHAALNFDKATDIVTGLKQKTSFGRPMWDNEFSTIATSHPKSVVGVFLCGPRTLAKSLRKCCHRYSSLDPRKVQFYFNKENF

[7] = Luminescence Cell-Based Dose Response HTS to Identify Activators of Luciferase Translation or Activity in H4 […] Cells. [Related pubchem assays: 1829 (Project Summary), 1814 (Primary HTS)]; assay type: functional
[8] = Luminescence Cell-Based Dose Confirmation HTS to Identify Activators of 5'UTR Stem-Loop Driven Alpha-Synuclein mRNA Translation in H4 Neuroglioblastoma Cells. [Related pubchem assays: 1829 (Project Summary), 1814 (Primary HTS)]; assay type: functional
H4 = assay: Luminescence Cell-Based Dose Response HTS to Identify Activators of 5'UTR Stem-Loop Driven Prion Protein mRNA Translation in H4 Neuroglioblastoma Cells. [Related pubchem assays: 1829 (Project Summary), 1814 (Primary HTS)]; assay type: functional; conditions: Homo sapiens
[9] = target: RNA-editing ligase 1, mitochondrial (Trypanosoma brucei brucei, UniProt P86926); assay: inhibition of trypanosome RNA editing ligase – biochemical, fluorescence, Trypanosoma brucei, dose response (AID 1117295); assay type: functional
Chain of RNA-editing ligase 1, mitochondrial (P86926 whole entry): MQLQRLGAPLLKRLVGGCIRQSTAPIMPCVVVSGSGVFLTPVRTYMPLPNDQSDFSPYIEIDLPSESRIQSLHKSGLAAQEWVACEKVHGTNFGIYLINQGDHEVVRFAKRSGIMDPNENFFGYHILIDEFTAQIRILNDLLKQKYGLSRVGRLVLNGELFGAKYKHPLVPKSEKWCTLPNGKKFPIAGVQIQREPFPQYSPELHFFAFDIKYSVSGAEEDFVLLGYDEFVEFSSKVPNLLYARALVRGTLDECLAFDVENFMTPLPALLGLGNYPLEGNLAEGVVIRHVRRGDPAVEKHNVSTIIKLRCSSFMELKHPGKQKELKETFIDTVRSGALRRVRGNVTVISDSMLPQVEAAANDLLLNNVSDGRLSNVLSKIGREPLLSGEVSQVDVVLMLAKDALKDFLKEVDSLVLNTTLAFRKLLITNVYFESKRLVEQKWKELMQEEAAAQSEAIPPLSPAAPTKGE

[10] = IC50 of Artemis nuclease activity blockers – biochemical, fluorescence intensity, dose response (AID 720701); assay type: functional;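 also: Artemis endonuclease enzyme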
[11] = target: Glutathione-S-transferase (Schistosoma japonicum, UniProt Q26513); assay: GST-antibody interaction or FRET quenching – biochemical, TR-FRET, artefact control for Vif-APOBEC3G degradation inhibitor project, dose response (AID 1117362); assay type: functional
Chain of Glutathione-S-transferase (Q26513 whole entry): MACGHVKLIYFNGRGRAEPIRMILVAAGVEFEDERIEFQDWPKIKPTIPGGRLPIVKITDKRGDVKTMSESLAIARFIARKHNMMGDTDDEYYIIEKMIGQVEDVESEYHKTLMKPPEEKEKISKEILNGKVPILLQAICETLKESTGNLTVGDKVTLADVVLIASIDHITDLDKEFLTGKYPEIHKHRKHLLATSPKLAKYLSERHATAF

[12] = target: T1, Sphingosine 1-phosphate receptor 2; assay: Dose Response Cell Based Assay for Agonists of the S1P2 Receptor. [Related pubchem assays: 729, 736, 843 ]; assay type: functional
cells [13] = conditions: A549
cells [14] = conditions: HEK293
[15] = viability loss in HepG2 liver cells – cell-based, ATP luminescence, cherry-pick, set 6, cytotoxicity control, dose response (AID 1053125); assay type: functional
cells [16] = assay: cells
[17] = inhibition of Env-driven cell fusion – HIV entry, plate reader, dry powder, dose response (AID 687023); assay type: functional, cell-based
[18] = viability loss in CEM21 cells – cell-based, plate reader, dry powder, cytotoxicity control, dose response (AID 687026); assay type: functional
Paired box protein Pax-8 = Paired box protein Pax-8 (Homo sapiens, UniProt Q06710); assay: PAX8 transcriptional activity inhibition in RMG-I – RMG-I cells, luciferase, cherry-pick, dose response (AID 687027); assay type: functional, cell-based;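 also: luciferase reporter driven by Pax8 target thyroperoxidase promoter measured by SteadyGlo luminescence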
Chain of Paired box protein Pax-8 (Q06710 whole entry): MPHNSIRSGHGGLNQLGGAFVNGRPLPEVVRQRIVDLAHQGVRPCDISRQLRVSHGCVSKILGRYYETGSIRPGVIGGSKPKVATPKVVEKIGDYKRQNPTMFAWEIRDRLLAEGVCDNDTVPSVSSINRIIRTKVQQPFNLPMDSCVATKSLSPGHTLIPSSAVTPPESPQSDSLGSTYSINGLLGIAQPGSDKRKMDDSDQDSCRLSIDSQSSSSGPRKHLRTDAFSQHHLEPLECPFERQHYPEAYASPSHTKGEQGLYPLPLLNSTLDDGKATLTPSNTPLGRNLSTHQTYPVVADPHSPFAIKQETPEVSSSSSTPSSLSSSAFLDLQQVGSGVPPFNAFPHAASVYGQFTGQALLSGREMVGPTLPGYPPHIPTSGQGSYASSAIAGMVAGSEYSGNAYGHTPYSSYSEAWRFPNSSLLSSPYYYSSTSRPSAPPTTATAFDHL

[19] = OVCAR8 cell viability loss – plate reader, dry powder samples, PAX8 project, dose response (AID 743197); assay type: functional, cell-based; conditions: OVCAR-8
[20] = PAX8-dependent cell viability loss – plate reader, dry powder, dose response (AID 743049); assay type: functional, cell-based

Structure (SMILES): Cc1ccccc1-c1nc(CN2CCCC(C(=O)NCCCN3CCOCC3)C2)c(C)o1 (centres undefined)
- IC50 [1]: > 109 µM (inactive)
- IC50 [2]: > 83.3 µM (inactive)

Structure (SMILES): O=C(O)c1sc2cc(C(F)(F)F)cnc2c1-c1ccccn1
- IC50 [3]: > 30 µM (not active)

Structure (SMILES): CCCN(C(=O)c1cc2c(s1)CCC2)c1c(N)n(Cc2ccccc2)c(=O)[nH]c1=O
- IC50 (Aminopeptidase N): 77.2 µM (active)
- IC50 (SUMO-activating enzyme [4]): 37.7 µM (active)
- IC50 [5]: > 43.8 µM (inactive)
- IC50 (SUMO-activating enzyme [6]): 16.7 µM (active)

Structure (SMILES): c1ccc2c(c1)Nc1cc3ccccc3cc1S2
- IC50 (NADPH oxidase 1): 7.58 µM (active)
- EC50 [7]: 6.01 µM (active)
- EC50 [8]: 98.5 µM (active)
- EC50 (H4): 5.77 µM (active)

Structure (SMILES): CC(C)c1c(Cl)c(O)c(-c2ccccc2)c(=O)n1-c1ccc(F)cc1
- IC50 [9]: 61.6 µM (inactive)

Structure (SMILES): Cc1ccc(C(=O)N/C(=C\c2ccc(-c3cc(Cl)ccc3Cl)o2)C(=O)NCc2cccnc2)cc1
- IC50 [10]: > 20 µM (inactive)

Structure (SMILES): CC1CCCCN1Cc1ccc(N(C)C)cc1 (centres undefined)
- IC50 [11]: > 100 µM (active)

Structure (SMILES): O=c1c(-c2nc3ccccc3s2)cccn1Cc1ccc(Cl)c(Cl)c1
- EC50 [12]: 2.18 µM (active)

Structure (SMILES): N=c1oc2cc(O)ccc2cc1C(=O)Nc1ccc(Cl)cc1
- AC50 (cells [13]): > 52 µM (inactive)
- AC50 (cells [14]): > 52 µM (inactive)
- AC50 [15]: > 52 µM (inactive)
- AC50 (cells [16]): 1.95 µM (active)

Structure (SMILES): Clc1ccc2c(c1)C(C1=NCCN1)c1ccccc1CS2 (centres undefined)
- AC50 [17]: 42.5 µM (active) and 54 µM (active)
- AC50 [18]: > 70 µM (inactive)

Structure (SMILES): C[C@@H]1CN([C@H](C)CO)C(=O)CCCn2cc(nn2)CO[C@H]1CN(C)C(=O)Nc1ccc(-c2cccs2)cc1
- AC50 (Paired box protein Pax-8): < 0.26 µM (active)
- AC50 [19]: > 70 µM (inactive)
- AC50 [20]: 1.65 µM (active)
